The source of these data is BindingDB's records for doi:10.1016/s0960-894x(00)00194-3 (The Oxford Centre For Molecular Sciences, 2000).

Structures are written as SMILES. Where a SMILES comes first, the peptide text is derived from it.

This assay can be described thus: Peptide was tested for inhibition constant for competitive inhibition using Suc-AAPA-pNa and Pancreatic elastase.
For orientation: Ki means a dissociation constant, usually derived from enzyme kinetics or from competition with a known ligand. As to `CC[C@H](C)[C@H](NC(=O)[C@H](C)NC(=O)[C@H](CCC(=O)O)NC(=O)[C@H](CC(C)C)NC(=O)[C@H](Cc1ccccc1)NC(=O)[C@@H](N)CCSC)C(=O)N1CCC[C@H]1C(=O)N[C@@H](CCSC)C(=O)N[C@@H](CO)C(=O)O`, the affinity corresponds to a Ki of 5800 µM.

For `CC[C@H](C)[C@H](NC(=O)[C@H](CO)NC(=O)[C@H](CCSC)NC(=O)[C@@H]1CCCN1C(=O)[C@@H](NC(=O)[C@H](C)NC(=O)[C@H](CCC(=O)O)NC(=O)[C@H](CC(C)C)NC(=O)[C@H](Cc1ccccc1)NC(=O)[C@@H](N)CCSC)[C@@H](C)CC)C(=O)O`, the Ki stood at 100 µM.

As to `CSCC[C@H](N)C(=O)N[C@@H](Cc1ccccc1)C(=O)N[C@@H](CC(C)C)C(=O)N[C@@H](C)C(=O)O` [(S)-2-{(S)-2-[(S)-2-((S)-2-Amino-4-methylsulfanyl-butyrylamino)-3-phenyl-propionylamino]-4-methyl-pentanoylamino}-propionic acid] (H-MFLA-OH), the affinity, expressed as Ki, was 1100 µM.
